In ChEMBL document CHEMBL5696442, “Discovery of type II inhibitors of TGFβ-activated kinase 1 (TAK1) and mitogen-activated protein kinase kinase kinase kinase 2 (MAP4K2)” (J Med Chem, 2015):
Activity calls are given as the source filed them. The rule behind the calls is not given here.

Columns and labels:
[1] = target: Serine/threonine-protein kinase 38-like (Homo sapiens) (UniProt Q9Y2H1); assay: Inhibition of NDR2 (unknown origin) at 10 uM by Ambit Kinomescan binding assay relative to control
[2] = target: T1, Phosphatidylinositol 5-phosphate 4-kinase type-2 alpha (Homo sapiens) (UniProt P48426); assay: Inhibition of PIP5K2A LIP labeling site in human Huh-7 cells at 10 uM by KiNativ Profiling analysis relative to control; format: cell-based
T1 sequence (whole entry): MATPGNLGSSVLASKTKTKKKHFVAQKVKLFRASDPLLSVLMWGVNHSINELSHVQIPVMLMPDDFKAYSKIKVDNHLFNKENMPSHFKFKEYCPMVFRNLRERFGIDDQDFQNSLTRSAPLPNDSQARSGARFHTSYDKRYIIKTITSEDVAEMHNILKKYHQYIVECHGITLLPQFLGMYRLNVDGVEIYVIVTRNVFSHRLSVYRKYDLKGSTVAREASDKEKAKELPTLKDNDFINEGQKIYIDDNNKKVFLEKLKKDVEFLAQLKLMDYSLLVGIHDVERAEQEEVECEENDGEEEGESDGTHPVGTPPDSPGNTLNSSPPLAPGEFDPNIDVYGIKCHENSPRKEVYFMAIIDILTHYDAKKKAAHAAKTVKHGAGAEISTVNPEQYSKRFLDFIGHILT

[3] = target: T2, PAN2-PAN3 deadenylation complex subunit PAN3 (Homo sapiens) (UniProt Q58A45); assay: Inhibition of PAN3 KD labeling site in human Huh-7 cells at 10 uM by KiNativ Profiling analysis relative to control; format: cell-based
T2 sequence (whole entry): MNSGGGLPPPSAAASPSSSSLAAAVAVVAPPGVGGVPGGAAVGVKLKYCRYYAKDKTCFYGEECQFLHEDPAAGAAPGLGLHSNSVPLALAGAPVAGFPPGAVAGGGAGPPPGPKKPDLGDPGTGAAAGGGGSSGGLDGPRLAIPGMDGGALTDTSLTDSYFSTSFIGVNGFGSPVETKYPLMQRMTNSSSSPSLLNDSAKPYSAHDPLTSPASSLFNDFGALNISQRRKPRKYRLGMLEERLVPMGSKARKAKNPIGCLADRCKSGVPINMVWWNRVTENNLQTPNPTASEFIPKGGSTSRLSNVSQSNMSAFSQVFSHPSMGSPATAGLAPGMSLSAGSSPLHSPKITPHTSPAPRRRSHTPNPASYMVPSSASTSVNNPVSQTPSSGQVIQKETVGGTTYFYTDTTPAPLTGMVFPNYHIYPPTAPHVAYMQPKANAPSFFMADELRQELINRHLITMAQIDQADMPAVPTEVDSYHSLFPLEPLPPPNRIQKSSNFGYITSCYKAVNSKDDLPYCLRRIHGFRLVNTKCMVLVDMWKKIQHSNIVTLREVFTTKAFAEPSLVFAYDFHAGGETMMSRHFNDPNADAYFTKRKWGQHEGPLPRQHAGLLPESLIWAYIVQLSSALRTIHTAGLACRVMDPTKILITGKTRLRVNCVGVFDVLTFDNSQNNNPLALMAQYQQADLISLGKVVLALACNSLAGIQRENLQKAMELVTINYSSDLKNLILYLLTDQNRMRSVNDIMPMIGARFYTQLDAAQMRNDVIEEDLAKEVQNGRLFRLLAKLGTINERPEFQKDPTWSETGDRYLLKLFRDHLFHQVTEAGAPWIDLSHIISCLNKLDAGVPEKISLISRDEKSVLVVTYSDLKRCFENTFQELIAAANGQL

[4] = target: T3, Serine/threonine-protein kinase Nek1 (Homo sapiens) (UniProt Q96PY6); assay: Inhibition of NEK1 (unknown origin) at 10 uM by Ambit Kinomescan binding assay
T3 sequence (whole entry): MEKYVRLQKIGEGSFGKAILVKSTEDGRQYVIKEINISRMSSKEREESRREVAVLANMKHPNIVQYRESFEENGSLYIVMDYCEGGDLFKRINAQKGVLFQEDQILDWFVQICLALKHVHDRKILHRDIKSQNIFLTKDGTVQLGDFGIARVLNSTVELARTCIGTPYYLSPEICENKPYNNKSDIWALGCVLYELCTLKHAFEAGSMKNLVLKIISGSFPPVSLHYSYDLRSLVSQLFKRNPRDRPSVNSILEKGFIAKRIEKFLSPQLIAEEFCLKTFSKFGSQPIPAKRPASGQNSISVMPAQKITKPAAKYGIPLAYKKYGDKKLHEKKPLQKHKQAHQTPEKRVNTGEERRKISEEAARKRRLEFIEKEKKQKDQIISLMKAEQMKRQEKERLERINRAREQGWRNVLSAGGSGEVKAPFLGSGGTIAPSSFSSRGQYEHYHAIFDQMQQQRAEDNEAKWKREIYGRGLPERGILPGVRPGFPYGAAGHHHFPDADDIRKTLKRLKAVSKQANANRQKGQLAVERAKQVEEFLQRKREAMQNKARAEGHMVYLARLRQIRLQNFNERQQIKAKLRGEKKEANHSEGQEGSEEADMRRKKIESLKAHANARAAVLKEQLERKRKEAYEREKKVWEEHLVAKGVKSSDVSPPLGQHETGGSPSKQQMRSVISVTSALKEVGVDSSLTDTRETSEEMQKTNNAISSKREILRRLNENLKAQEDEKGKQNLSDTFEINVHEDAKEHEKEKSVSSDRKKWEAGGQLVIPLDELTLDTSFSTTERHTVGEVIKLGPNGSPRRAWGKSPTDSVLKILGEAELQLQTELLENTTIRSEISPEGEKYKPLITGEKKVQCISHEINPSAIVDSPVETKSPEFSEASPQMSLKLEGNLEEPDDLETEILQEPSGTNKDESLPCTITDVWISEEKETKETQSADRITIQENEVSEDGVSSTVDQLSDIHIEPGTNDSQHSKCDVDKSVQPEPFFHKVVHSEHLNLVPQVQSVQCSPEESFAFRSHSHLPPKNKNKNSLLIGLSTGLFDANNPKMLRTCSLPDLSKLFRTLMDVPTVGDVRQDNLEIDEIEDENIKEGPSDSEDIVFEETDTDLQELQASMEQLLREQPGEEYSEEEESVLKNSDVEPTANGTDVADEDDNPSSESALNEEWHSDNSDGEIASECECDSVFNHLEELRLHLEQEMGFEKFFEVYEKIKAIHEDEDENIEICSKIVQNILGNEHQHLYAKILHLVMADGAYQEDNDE

[5] = target: Tyrosine-protein kinase SYK (Homo sapiens) (UniProt P43405); assay: Inhibition of SYK (unknown origin) at 10 uM by Ambit Kinomescan binding assay relative to control; values are per cent of control

Sequence of Serine/threonine-protein kinase 38-like (Homo sapiens) (Q9Y2H1 2-464 limits assumed): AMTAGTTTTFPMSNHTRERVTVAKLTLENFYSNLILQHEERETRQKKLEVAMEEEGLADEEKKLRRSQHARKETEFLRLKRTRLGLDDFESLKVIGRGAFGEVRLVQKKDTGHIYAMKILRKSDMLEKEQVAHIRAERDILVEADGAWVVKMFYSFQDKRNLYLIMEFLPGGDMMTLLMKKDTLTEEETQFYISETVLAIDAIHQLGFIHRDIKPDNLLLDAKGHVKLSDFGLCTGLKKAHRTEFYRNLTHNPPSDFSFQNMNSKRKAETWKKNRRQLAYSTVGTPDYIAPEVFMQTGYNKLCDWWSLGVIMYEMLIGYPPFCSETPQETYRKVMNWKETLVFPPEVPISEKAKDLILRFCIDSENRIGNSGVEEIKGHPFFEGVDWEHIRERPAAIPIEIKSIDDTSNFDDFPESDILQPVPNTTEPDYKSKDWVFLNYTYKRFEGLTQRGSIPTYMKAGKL

`CCN1CCN(Cc2ccc(NC(=O)c3ccc(C)c(Oc4ccnc5[nH]ccc45)c3)cc2C(F)(F)F)CC1` showed an inhibition [1] of 6.8%, an inhibition [2] of 0% and an inhibition [3] of 4.5%. For the same compound, the inhibition [4] was “inactive” and the residual activity [5] was 6.2%.
